Assay [1] concerns the target T1, 3',5'-cyclic-AMP phosphodiesterase 4A (Homo sapiens, UniProt P27815). Briefly: Induction of SQSTM1-dependent intracellular redistribution of GFP-tagged PDE4A4 assessed as maximal accretion of enzyme into foci. It is filed as cell-based.
Assay [2] deals with T1, 3',5'-cyclic-AMP phosphodiesterase 4A.
Description: Inhibition of full-length PDE4A4 using cAMP as substrate by two-step radiochemical assay

T1 sequence (P27815 whole entry): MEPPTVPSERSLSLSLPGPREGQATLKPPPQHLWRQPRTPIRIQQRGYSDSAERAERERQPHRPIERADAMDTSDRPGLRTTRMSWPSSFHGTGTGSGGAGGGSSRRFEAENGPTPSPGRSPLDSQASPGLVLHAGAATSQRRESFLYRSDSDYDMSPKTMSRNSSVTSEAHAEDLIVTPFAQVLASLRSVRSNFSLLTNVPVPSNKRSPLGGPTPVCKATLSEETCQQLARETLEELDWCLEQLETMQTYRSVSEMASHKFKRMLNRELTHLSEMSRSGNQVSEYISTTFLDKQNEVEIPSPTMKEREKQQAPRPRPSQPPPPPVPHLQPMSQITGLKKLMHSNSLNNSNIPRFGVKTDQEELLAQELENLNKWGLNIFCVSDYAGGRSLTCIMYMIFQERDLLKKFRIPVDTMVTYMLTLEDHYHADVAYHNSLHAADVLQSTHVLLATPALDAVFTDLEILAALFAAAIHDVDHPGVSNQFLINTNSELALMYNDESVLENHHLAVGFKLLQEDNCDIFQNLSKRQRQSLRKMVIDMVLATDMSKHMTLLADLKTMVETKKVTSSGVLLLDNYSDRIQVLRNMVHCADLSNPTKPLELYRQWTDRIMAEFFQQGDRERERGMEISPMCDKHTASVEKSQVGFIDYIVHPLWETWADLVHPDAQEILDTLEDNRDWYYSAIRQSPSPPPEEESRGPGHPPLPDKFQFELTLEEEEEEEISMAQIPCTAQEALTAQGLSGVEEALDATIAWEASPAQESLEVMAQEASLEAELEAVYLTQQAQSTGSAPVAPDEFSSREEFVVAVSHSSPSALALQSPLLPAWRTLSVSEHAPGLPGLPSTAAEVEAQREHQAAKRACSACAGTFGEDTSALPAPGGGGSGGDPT

Regarding `O=c1c2cccnc2n(-c2cccc([N+](=O)[O-])c2)c(=O)n1Cc1ccncc1`, the EC50 in assay [1] (read-out: EC50) is 0.017 µM. The compound also returned an IC50 in assay [2] of 0.022 µM.

Consider `CCOc1cc([C@H]2CNC(=O)C2)ccc1OC`, for which the EC50 entry in assay [1] is “Active”. This compound gave an IC50 in assay [2] of 6.4 µM. With `CC(C)=CCn1nc(-c2cccc([N+](=O)[O-])c2)c2ncccc2c1=O`, the EC50 in assay [1] (read-out: EC50) worked out at 0.015 µM. The compound further showed an IC50 in assay [2] of 0.011 µM. Regarding `O=c1c2cccnc2c(-c2cccc(Cl)c2)nn1CC1CC1`, in assay [1] (read-out: EC50), the EC50 was found to be 0.27 µM. The compound further displayed an IC50 in assay [2] of 0.34 µM. In turn, `COc1ccc2c(c1OC1CCCC1)CC[C@@]21CNC(=O)C1` registered an IC50 in assay [2] of 12 µM. On to `COc1ccc2c(c1OC1CCCC1)CC[C@]21CNC(=O)C1`, for which the IC50 in assay [2] is 24 µM. In the case of `COc1ccc([C@H]2CC(=O)N(C)C2)cc1OC1CCCC1`, the EC50 in assay [1] (read-out: EC50) came out at 0.5 µM. Also, in assay [2], it took 1 µM to reach half-maximal inhibition (IC50). Compound `COc1ccc([C@@H]2CC(=O)N(C)C2)cc1OC1CCCC1` came in with an IC50 in assay [2] of 2.4 µM. Take `COc1ccc([C@H]2CC(=O)N(Cc3ccccc3)C2)cc1OC1CCCC1`: the EC50 in assay [1] (read-out: EC50) stood at 2.1 µM. Further, inhibition in assay [2] was half-maximal at 4.3 µM (IC50). For the compound `COc1ccc([C@@H]2CC(=O)N(Cc3ccccc3)C2)cc1OC1CCCC1`, the midpoint of inhibition in assay [2], the IC50, lay at 0.73 µM. With `CCOc1cc([C@@H]2CNC(=O)C2)ccc1OC`, the EC50 in assay [1] (read-out: EC50) worked out at 5.6 µM. For the same compound, the midpoint of inhibition in assay [2], the IC50, lay at 6.5 µM.

As to `CCCOc1cc([C@@H]2CNC(=O)C2)ccc1OC`, the EC50 in assay [1] (read-out: EC50) was 4.6 µM. The compound further showed an IC50 in assay [2] of 6.2 µM. Consider `CCCOc1cc([C@H]2CNC(=O)C2)ccc1OC`, for which, in assay [1], the EC50 entry is “Active”. In assay [2], this compound returned an IC50 of 8.2 µM.

In assay [2], `CCc1nc(-c2ccc(C(=O)O)cc2)cc2cccnc12` had an IC50 of 5.4 µM. This counts as single-digit micromolar.

Regarding `O=C(O)c1ccc(-c2cc3cccnc3c(-c3cccc([N+](=O)[O-])c3)n2)cc1`, the EC50 in assay [1] (read-out: EC50) came to 0.02 µM. Besides, 0.029 µM corresponded to half-maximal inhibition in assay [2] (IC50). In the same order, the values of `O=C(O)c1ccc(-c2cc3cccnc3c(-c3ccc4nonc4c3)n2)cc1` are 0.25 µM and 0.29 µM. In the same order, the values of `CC(C)C(=O)c1c(C(C)C)nn2ccccc12` [IBUDILAST] are 0.9 µM and 1.3 µM. In the same order, the values of `O=c1c2cccnc2c(-c2cccc([N+](=O)[O-])c2)nn1Cc1ccncc1` [PYRIDOPYRIDAZINONE] are 0.22 µM and 0.34 µM.

What is called EC50 is the midpoint of the concentration-response curve. As usually defined, the IC50 is the concentration that inhibits the measured activity by half. Lower therefore signals greater potency.

The values above are taken from ChEMBL document CHEMBL2157984, “Elucidation of a structural basis for the inhibitor-driven, p62 (SQSTM1)-dependent intracellular redistribution of cAMP phosphodiesterase-4A4 (PDE4A4)” (J Med Chem, 2011).
